{
  "source": "paper PMC8634383",
  "about": "“Switching Bond: Generation of New Antimicrobial Peptides via the Incorporation of an Intramolecular Isopeptide Bond” (ACS Infectious Diseases, 2021)",
  "key": {"in vitro": {"experiment": "in vitro", "conditions": "for percentage intact peptide: 20% (v/v) human plasma, 37 °C, RP-HPLC C18, 215 nm peak area; for remaining at 0.25 h, 200 μM / remaining at 0.5 h, 200 μM / remaining at 1 h, 200 μM / remaining at 2 h, 200 μM / remaining at 4 h, 200 μM: human, blood plasma (20% v/v), pH 7.4", "description": "The stability of the peptides was assessed by incubating them in blood plasma (20% v/v) rich in proteases thrombin and plasmin for different time periods at 37 °C.\nThe stability of peptides in human blood plasma was measured using a literature procedure.[13],[53] Plasma was separated from red blood cells over centrifugation, frozen, and stored at −80 °C until use. Briefly, peptides were prepared as a 1 mM solution in phosphate buffered saline (pH 7.4). 20 μL of the peptide solution was diluted in 80 μL of blood plasma (20% v/v). The solution was incubated at 37 °C for different time points, and 100 μL of a mixture containing 80% acetonitrile/10% methanol/10% water was added to stop further degradation of the peptides. A cloudy solution was produced upon the addition of the stopping solution, and the sample was cooled to 4 °C for 1 h and then centrifuged at 10 000 rpm for 10 min to remove the plasma proteins as precipitate. The supernatant (50 μL) was injected onto a reversed-phase HPLC (C18 reverse phase, Bio-Rad analytical column, 250 × 4 mm, 300 Å pore size, 7 μm particle size). The column was eluted in 40 min using a linear gradient of 10–90% acetonitrile in water containing 0.1% trifluoroacetic acid (v/v) at a flow rate of 0.6 mL/min, and the absorbance was detected at 215 nm. The percentage of remaining peptide was determined by the decrease in chromatographic peak area."}, "[1]": {"tested_on": "Pseudomonas aeruginosa PA01", "format": "cell-based", "conditions": "24 h", "description": "(§1) A panel of four bacteria, including two Gram-negative (P. aeruginosa, E. coli) and two Gram-positive (S. aureus, B. subtilis) bacterial strains, was used to test the antibacterial properties of the peptides. The bacteria P. aeruginosa, E. coli, and S. aureus belong to the ESKAPE group of pathogens, which are potential multidrug resistant strains that are majorly involved in various nosocomial infections.\n(§2) The antimicrobial activity of the peptides was determined against two Gram-negative (Pseudomonas aeruginosa PA01 and the Escherichia coli K12 parental type) and two Gram-positive (Staphylococcus aureus and Bacillus subtilis) bacteria. The minimal inhibitory concentration (MIC) assays were performed as reported by Wiegand et al.,[50] using the broth microdilution method in 96-well round-bottom microplates. Briefly, bacterial cells in mid log phase were cultured in Mueller-Hinton broth (MHB) and then diluted to 10^6 CFU/mL. Aliquots of 50 μL of bacterial solution were added to 50 μL of MHB medium containing 2-fold serially diluted peptides with concentrations ranging from 1.56 to 50 μM. Plates were incubated at 37 °C for 24 h, and MICs were defined as the lowest concentration of peptide that prevented detectable turbidity. Cultures without peptides and uninoculated MHB were employed as positive and negative controls, respectively. The bacterial growth inhibition was evaluated by measuring the absorbance at 600 nm using a microplate autoreader (SynersyMx, Biotek)."}, "[2]": {"tested_on": "Escherichia coli K12 parental type", "format": "cell-based", "conditions": "K12, 24 h", "description": "as §1, §2"}, "Bacillus subtilis": {"tested_on": "Bacillus subtilis", "format": "cell-based", "conditions": "24 h", "description": "as §1, §2"}, "trypsin": {"tested_on": "trypsin", "experiment": "in vitro", "conditions": "for remaining at 1 h, 100 μM: trypsin in phosphate buffered saline; for peptide remaining intact after trypsin incubation: trypsin 10 μg/mL, peptide 100 μM in PBS, 1 h, RP-HPLC C18 peak area relative to t0", "text": "In order to overcome the proteolytic instability of peptide based drugs, the resistance of peptides to proteases is an essential prerequisite[33] because the peptides can be digested by the microbial or host protease and lose activity. Here, we tested the effect of the incorporation of an amide bond isostere on the resistance to trypsin, a serine protease known to cleave peptide bonds mainly at the C-terminal side of the amino acids lysine or arginine.\nFigure 5 Resistance of peptides to trypsin digestion.\nProteolysis was measured by RP-HPLC using the following parameters, as reported.[52] Trypsin with a final concentration of 10 μg/mL was added to a solution of the peptides in phosphate buffered saline (100 μM), and the reaction was monitored over time by using reversed-phase HPLC (C18 reverse phase, Bio-Rad analytical column, 250 × 4 mm, 300 Å pore size, 7 μm particle size). The column was eluted in 40 min using a linear gradient of 10–90% acetonitrile in water containing 0.1% trifluoroacetic acid (v/v) at a flow rate of 0.6 mL/min."}, "[3]": {"tested_on": "human monocytic (THP-1) cells", "format": "cell-based", "conditions": "100 µM", "description": "Peptide-induced cytotoxicity was assessed against murine macrophage (RAW 264.7) cells and human monocytic (THP-1) cells using the benzenesulfonic acid hydrate and N-methyl dibenzopyrazine methyl sulfate (XTT) dye reduction assay. […] This may in part be due to low hydrophobicity (Table 1), leading to less bacterial membrane alteration.\nFigure 3 Cytotoxicity of peptides (1.56–100 μM) on human monocytic (THP-1) cells. Cell viability was analyzed and quantified by measuring the absorption at 450 nm. The data is presented as mean percent viability. All data represent mean ± SD from three independent experiments. One-way analysis of variance was used to analyze the data.\nThe cytotoxicity of the peptides toward the murine macrophage cells (RAW 264.7) and human monocytic (THP-1) cells was assayed using the colorimetric 2,3-bis(2-methoxy-4-nitro-5-sulfophenyl)-2H-tetrazolium-5-carboxanilide (XTT) method. […] After incubation, the cell viabilities were assessed by the XTT reaction solution (100 μL), and benzenesulfonic acid hydrate and N-methyl dibenzopyrazine methyl sulfate (mixed in a 50:1 ratio) were added for an additional 4 h incubation at 37 °C. The absorbance at 450 nm was then measured using a microplate autoreader (SynersyMx, Biotek). The percentage of cell viability was calculated relative to the 100% survival control after the blank read’s deduction."}, "Staphylococcus aureus": {"tested_on": "Staphylococcus aureus", "format": "cell-based", "conditions": "24 h", "description": "as §1, §2"}},
  "note": "Starred links: 1 amine or outer side, 2 acyl side, 3 side chain; linkers in the order of their positions; H or OH if unused. Positions of bridges follow the written chain, without caps; N, C: chain ends. Non-standard residues stand in square brackets, D forms with d. Residues, ends and D or L forms follow the SMILES beside them. Chains are numbered I, II in the order given. No end group written: not given here. εLys = N[C@@H](CCCCN[*:1])C(=O)[*:2]",
  "data": [
    {"compound": "CC(C)C[C@H](NC(=O)[C@H](CC(C)C)NC(=O)[C@@H](N)CCCCNC(=O)[C@H](CC(C)C)NC(=O)[C@H](CC(C)C)NC(=O)[C@H](CCCCN)NC(=O)[C@@H](N)CCCCNC(=O)[C@H](CC(C)C)NC(=O)[C@H](CC(C)C)NC(=O)[C@H](CCCCN)NC(=O)[C@@H](N)CCCCNC(=O)[C@H](CC(C)C)NC(=O)[C@H](CC(C)C)NC(=O)[C@H](CCCCN)NC(=O)[C@@H](N)CC(C)C)C(N)=O", "note": "[Amp1EP] (I: H-LKLL[εLys]KLL / II: H-KKLL[εLys]LL-NH2; amide I:C-II:1)", "values": [
      {"measurement": "percentage intact peptide", "setting": "in vitro; 30 min", "value": "~85", "unit": "%"},
      {"measurement": "remaining at 0.25 h, 200 μM", "setting": "in vitro", "value": 85, "unit": "%"},
      {"measurement": "remaining at 0.5 h, 200 μM", "setting": "in vitro", "value": 85, "unit": "%"},
      {"measurement": "remaining at 1 h, 200 μM", "setting": "in vitro", "value": 66, "unit": "%"},
      {"measurement": "remaining at 2 h, 200 μM", "setting": "in vitro", "value": 60, "unit": "%"},
      {"measurement": "remaining at 4 h, 200 μM", "setting": "in vitro", "value": 37, "unit": "%"},
      {"measurement": "MIC", "setting": "[1]", "value": "3.125 to 6.25", "unit": "µM"},
      {"measurement": "MIC", "setting": "[2]", "value": 6.25, "unit": "µM"},
      {"measurement": "MIC", "setting": "Bacillus subtilis", "value": 12.5, "unit": "µM"},
      {"measurement": "remaining at 1 h, 100 μM", "setting": "trypsin", "value": 37, "unit": "%"},
      {"measurement": "drop of cell viability", "setting": "[3]", "value": 50, "unit": "%"}
    ]},
    {"compound": "CC[C@H](C)[C@H](NC(=O)CN)C(=O)NCC(=O)N[C@@H](CCCCN)C(=O)N[C@@H](Cc1ccccc1)C(=O)N[C@@H](CC(C)C)C(=O)N[C@@H](CCCCN)C(=O)NCCCC[C@H](N)C(=O)N[C@@H](C)C(=O)N[C@@H](CCCCN)C(=O)N[C@@H](CCCCN)C(=O)N[C@@H](Cc1ccccc1)C(=O)NCC(=O)NCCCC[C@H](N)C(=O)N[C@@H](C)C(=O)N[C@@H](Cc1ccccc1)C(=O)N[C@H](C(=O)NCCCC[C@H](N)C(=O)N[C@H](C(=O)N[C@@H](CC(C)C)C(=O)N[C@@H](CCCCN)C(=O)N[C@@H](CCCCN)C(N)=O)[C@@H](C)CC)C(C)C", "note": "[MSIEP] (H-GIGKFLK[εLys]AKKFG[εLys]AFV[εLys]ILKK-NH2)", "values": [
      {"measurement": "remaining at 0.25 h, 200 μM", "setting": "in vitro", "value": 99, "unit": "%"},
      {"measurement": "remaining at 0.5 h, 200 μM", "setting": "in vitro", "value": 98, "unit": "%"},
      {"measurement": "remaining at 1 h, 200 μM", "setting": "in vitro", "value": 76, "unit": "%"},
      {"measurement": "remaining at 2 h, 200 μM", "setting": "in vitro", "value": 75, "unit": "%"},
      {"measurement": "remaining at 4 h, 200 μM", "setting": "in vitro", "value": 75, "unit": "%"},
      {"measurement": "MIC", "setting": "[1]", "value": "6.25 to 12.5", "unit": "µM"},
      {"measurement": "MIC", "setting": "[2]", "value": 12.5, "unit": "µM"},
      {"measurement": "MIC", "setting": "Staphylococcus aureus", "value": "6.25 to 12.5", "unit": "µM"},
      {"measurement": "MIC", "setting": "Bacillus subtilis", "value": "6.25 to 12.5", "unit": "µM"},
      {"measurement": "remaining at 1 h, 100 μM", "setting": "trypsin", "value": "> 66", "unit": "%"},
      {"measurement": "drop of cell viability", "setting": "[3]", "value": 20, "unit": "%"}
    ]},
    {"compound": "GIGKFLKKAKKFGKAFVKILKK-NH2 [MSI-78]", "values": [
      {"measurement": "remaining at 0.25 h, 200 μM", "setting": "in vitro", "value": 91, "unit": "%"},
      {"measurement": "remaining at 0.5 h, 200 μM", "setting": "in vitro", "value": 81, "unit": "%"},
      {"measurement": "remaining at 1 h, 200 μM", "setting": "in vitro", "value": 81, "unit": "%"},
      {"measurement": "remaining at 2 h, 200 μM", "setting": "in vitro", "value": 63, "unit": "%"},
      {"measurement": "remaining at 4 h, 200 μM", "setting": "in vitro", "value": 55, "unit": "%"},
      {"measurement": "MIC", "setting": "[2]", "value": "1.56 to 3.12", "unit": "µM"},
      {"measurement": "MIC", "setting": "Staphylococcus aureus", "value": "0.78 to 1.56", "unit": "µM"},
      {"measurement": "MIC", "setting": "Bacillus subtilis", "value": 1.56, "unit": "µM"},
      {"measurement": "peptide remaining intact after trypsin incubation", "setting": "trypsin", "value": "no longer detected"}
    ]},
    {"compound": "LKLLKKLLKKLLKLL-NH2 [Amp1L]", "values": [
      {"measurement": "percentage intact peptide", "setting": "in vitro; 30 min", "value": "~65", "unit": "%"},
      {"measurement": "percentage intact peptide", "setting": "in vitro; 120 min", "value": "~61", "unit": "%"},
      {"measurement": "remaining at 0.25 h, 200 μM", "setting": "in vitro", "value": 71, "unit": "%"},
      {"measurement": "remaining at 0.5 h, 200 μM", "setting": "in vitro", "value": 65, "unit": "%"},
      {"measurement": "remaining at 1 h, 200 μM", "setting": "in vitro", "value": 62, "unit": "%"},
      {"measurement": "remaining at 2 h, 200 μM", "setting": "in vitro", "value": 61, "unit": "%"},
      {"measurement": "remaining at 4 h, 200 μM", "setting": "in vitro", "value": 39, "unit": "%"},
      {"measurement": "MIC", "setting": "[2]", "value": "3.12 to 6.25", "unit": "µM"},
      {"measurement": "MIC", "setting": "Bacillus subtilis", "value": "6.25 to 12.5", "unit": "µM"},
      {"measurement": "peptide remaining intact after trypsin incubation", "setting": "trypsin", "value": "no longer detected"}
    ]}
  ]
}
